Measurements from US11786464B2, “PH responsive block copolymer compositions and micelles that inhibit MCT 1 and related proteins” (The Board of Regents of the University of Texas System, priority 2020, dated 2023).
Where two headings read alike, the source gives them in different places.

Legend:
in vivo = type: in vivo, mice; settings: for concentration at 24 h: tumor tissue 24 h after administration, read-out: tumor accumulation of AZD3965
Procedure: Mouse plasma were collected and added into 1 mL of methanol/water mixture (80/20, v/v) at 0.5, 6 and 24 h after treatment by different regimens. Tissues (heart, liver, kidney and tumor) were collected at 24 h. About 100 mg of tissues were removed, and the wet weight was recorded. The tissues were homogenized in 1 mL of methanol/water mixture (80/20, v/v). The plasma and tissue mixture were centrifuged and the supernatant was collected respectively, dried by a SpeedVac, then dissolved in methanol and measured by HPLC.

[1] = Toxicity analysis (body weight, cTnI, ALT, AST) in tumor-bearing mice; type: in vivo
Procedure: Six to eight week old mice (n=5-7 for each group) were injected subcutaneously with TC-1 (2×10^5) or B16F10 (2×10^5) cells into the right flank. […] Some groups were intraperitoneally injected with 200 μg checkpoint inhibitors (anti-mPD-1, BioXcell, BE0146) for comparison or synergy evaluation. Tumor growth was subsequently measured twice a week using a digital caliper and calculated as 0.5×length×width×height by blinded investigators. Mouse weight was also recorded. Mice were sacrificed when the tumor volumes reached 1,500 mm^3.
Blood of different mouse groups were collected after 4 h. Then alanine transaminase activity assay (Abcam, ab105134), aspartate aminotransferase activity assay (Abcam, ab105135), and mouse cardiac troponin-I ELISA analysis (Life Diagnostics, Inc., Cat. No. CTNI-1-HS) were performed.

TC-1 tumor = assay: Tumor growth and survival, TC-1 tumor model; type: in vivo; settings: TC-1 model, day 27
Procedure: Six to eight week old mice (n=5-7 for each group) were injected subcutaneously with TC-1 (2×10^5) or B16F10 (2×10^5) cells into the right flank. Animals were treated by 50 mg/kg AZD3965 (administered twice daily by oral gavage for a total of 7 days), or by AZD-UPS NPs (containing 2 mg/kg AZD3965, IV injected at days 7, 10 and 13). Some groups were intraperitoneally injected with 200 μg checkpoint inhibitors (anti-mPD-1, BioXcell, BE0146) for comparison or synergy evaluation. Tumor growth was subsequently measured twice a week using a digital caliper and calculated as 0.5×length×width×height by blinded investigators. Mouse weight was also recorded. Mice were sacrificed when the tumor volumes reached 1,500 mm^3.

TC-1 cells = assay: Measurement of lactate and pH in the cell culture medium; type: cell-based; settings: 1 μM (effective) AZD3965, 24 h, added directly (intact NPs), vs untreated control
Procedure: All animal procedures were performed with ethical compliance and approval by the Institutional Animal Care and Use Committee at the University of Texas Southwestern Medical Center. Cells were cultured in DMEM medium (10% fetal bovine serum, 100 U/mL penicillin G sodium and 100 μg/mL streptomycin (Pen/Strep), non-essential amino acids, and 20 μM β-mercaptoethanol (β-ME)) at 37° C. in 5% CO2 and the normal level of O2.
For lactate measurement, TC-1 cells were cultured in normal DMEM medium as described above with different drugs: free AZD3965 (1 uM), intact AZD-UPS NPs (1 uM effective AZD3965 concentration), or pretreatment of AZD-UPS NPs in pH 6.0 buffer for pH-activated drug release followed by addition into the cell culture medium. After 24 h incubation, lactate concentration was measured by NOVA BioProfile 4. For pH measurement, TC-1 cells were cultured in DMEM medium (D5030, Sigma) without NaHCO3, and in incubator without CO2 for 24 h, followed by measurement of medium pH.

[2] = oral administration 50 mg/kg for 7 days, serum 4 h after last treatment, vs untreated

- clearance from plasma (in vivo; intravenous injection 2 mg/kg): rapid clearance of the drug
- AUC (in vivo; mouse, intravenous 2 mg/kg AZD3965, plasma, read-out: area under the concentration-time (AUC) value): 5400 ± 2500 ng·h/mL
- concentration at 24 h (in vivo; mouse, intravenous 2 mg/kg): 290 ± 120 ng/g
- concentration at 24 h (in vivo; mouse, oral administration 100 mg/kg (50-fold higher dose)): 4000 ± 3500 ng/g
- peak drug plasma concentration (in vivo; oral administration 100 mg/kg, at 30 min, TC-1 tumor-bearing mice): 47 ± 27 µg/mL
SMILES: Cc1[nH]nc(C(F)(F)F)c1Cc1sc2c(c1C(=O)N1C[C@](C)(O)CO1)c(=O)n(C)c(=O)n2C(C)C [AZD3965]
- level of alanine aminotransferase (ALT) [1, 2]: significantly increased
- level of aspartate aminotransferase (AST) [1, 2]: significantly increased
- level of cardiac troponin-I (cTnI) [1, 2]: significantly increased
- body weight ([1]; oral administration, two weeks of treatment): did not cause weight loss
- tumor volume (TC-1 tumor; oral 50 mg/kg twice daily for 7 days, p=0.09 vs untreated): 9.2±4.1×10^2 mm^3
- tumor volume (TC-1 tumor; oral AZD3965 in combination with anti-PD1): 8.0±3.1×10^2 mm^3
- lactate secretion into culture medium (TC-1 cells): significantly decreased the secretion of lactate
- pH change of culture medium (TC-1 cells): inhibited the lowering of pH in the medium
